According to patent publication US8642553B2, “Acacia macrostachya seed extract and compositions containing same” (Laboratoires Expanscience, priority 2009, dated 2014):

What was measured:
[1] = tested on: Normal human keratinocytes; experiment: Screening of expression of junction protein messengers in keratinocytes (PCR array); format: cell-based; settings: 1.5 mM, 24 hours, Control: 100%
Experimental: The activity of Acacia hydrolysate was studied by quantitative RT-PCR on the level of expression of 16 genes mainly coding for tight junction proteins as well as for the major proteins of the communicating junctions of the epidermis. […] The expression of the markers was evaluated by quantitative RT-PCR (PCR array). The variation in the expression of the markers studied compared to the control was expressed in percentage (Control: 100%). The levels of expression are classified in the following manner: […]

[2] = tested on: Normal human fibroblasts; experiment: Gene expression of markers of the dermal matrix and antioxidant defences by fibroblasts (quantitative RT-PCR in real time); format: cell-based; settings: 5 ng/ml, 24h
Experimental: The effect of Acacia hydrolysate on the modulation of the extra-cellular matrix of the dermis and on the stimulation of the anti-oxidant defences was evaluated on a dermal fibroblasts model in which the gene expression of elastin, MMP1 and heme oxygenase 1 was studied by quantitative RT-PCR in real time.
Normal human fibroblasts were treated for 24h with 0.01% and 0.05% Acacia hydrolysate (w/v) or with the reference TGFβ1 at 5 ng/ml. The gene expression of the selected markers was analysed by quantitative RT-PCR in real time.
The results were analysed statistically by a one-way variance analysis (ANOVA) followed by a Dunnett test: • ns p>0.05: not significant • *0.01<p<0.05: significant • **0.001<p<0.01: very significant • ***p<0.001: highly significant
The level of gene expression was expressed in relative quantity (RQ) and the effect of the treatment in relation to the control cells in percentage increase or inhibition.

Row | Compound | Cingulin messenger expression [1] | Claudin 1 messenger expression [1] | Gap junction protein (β2 messenger expression) [1] | Occludin messenger expression [1] | ELASTIN gene expression, percentage increase or inhibition vs control cells [2] | MMP1 gene expression, percentage increase or inhibition vs control cells [2] | ELASTIN gene expression, relative quantity (RQ) ([2]; control cells 1.00) | MMP1 gene expression, relative quantity (RQ) ([2]; control cells 1.00)
1 | [Ca+2].[Cl-].[Cl-] [CaCl2, calcium chloride] | 337 % Control | 216 % Control | 43 % Control | 445 % Control | – | – | – | –
2 | TGFβ1: reference TGFβ1 at 5 ng/ml | – | – | – | – | +559% | −88% | 6.59 | 0.12
